We go through three substances from US6933277B2, “Prevention of fetal alcohol syndrome and neuronal cell death with ADNF polypeptides” (The United States of America as represented by the …, priority 1999, dated 2005).

Series [1] has as its system model for FAS, C57B 1/6J mouse strain. The series can be described thus: Fetal demise at E18 in mouse model for FAS (alcohol on E8, peptide pretreatment). The series is classed as in vivo. Particulars: for percentage of fetal demises: E18, pretreatment 30 min prior to alcohol (25% ethyl alcohol i.p., 0.030 ml/g) on E8, NAPVSIPQ 20 μg, SALLRSIPA 20 μg, VIP 1 μg, combination 20 μg+20 μg; for alcohol toxicity as measured by fetal demises and weight (summary): summary of fetal demises and weights (fetal and fetal brain) at E18. The method, then:
(§1) C57-B16J female mice (Jackson Labs) were kept under a 12 h light, 12 h dark regimen with food and water available at all times. The mice received humane animal care in compliance with the “Guideline for Care and Use of Experimental Animals.” Six week old females (21-24 grams) were mated with C57-B 16J males for 4 h. The presence of a vaginal plug was considered day 0 pregnancy.
(§2) A published well-delineated model for FAS was followed (Webster, W. S., et al., Neurobehav Tox, 2:227-34 (1980)). Animals were injected (intraperitoneal) on E8 with […] in saline (v/v) or vehicle alone at 0.030 ml/g body weight. Pretreatment with VIP and ADNF peptides (NAPVSIPQ (SEQ ID NO:2), SALLRSIPA (SEQ ID NO:1), NAPVSIPQ (SEQ ID NO:2)+SALLRSIPA (SEQ ID NO:1)) were given 30 min prior to alcohol. Dosages of the neuropeptides were NAPVSIPQ (SEQ ID NO:2) (20 μg) and (40 μg), SALLRSIPA (SEQ ID NO:1) (20 μg), NAPVSIPQ (SEQ ID NO:2) (20 μg)+(20 μg); VIP (1 μg). A NAPVSIPQ (SEQ ID NO:2)+SALLRSIPA (SEQ ID NO:1) control group without alcohol was studied. NAPVSIPQ (SEQ ID NO:2) was diluted in 50 μl DMSO and diluted in filtered Dulbecco's phosphate buffered saline (DPBS). SAL was dissolved and diluted in filtered DPBS. VIP was dissolved in […] glacial acetic acid and diluted in HPLC water and DPBS. Since the animals receiving alcohol were incapacitated for approximately 6 h following injection, food and water were withheld from all groups for the initial 6 hours after injection, to allow accurate assessment of fetal weights.
(§3) At E18 (embryonic gestation day 18), the number of live and demised fetuses was determined. Fetal weights and fetal brain weights were obtained for each fetus in the litter. The mean fetal weights were determined for each mother and this was used for statistical analysis.
(§4) The mean litter pup and fetal brain weight was calculated, with the litter mean used for all statistical analysis. Percent demises were calculated by dividing the number of demises by the total number of fetuses (live plus demises). Statistical analysis included ANOVA for continuous variables, Mann-Whitney U for nonparametic data, Chi square for categorical variables or Fisher's exact test where appropriate [Statview 4.5 (Abacus Concepts, Inc., Berkeley, Calif.)] with p<0.05 considered significant. Results are presented as mean±standard error unless specified.
(§5) The C57B 1/6J mouse strain provided a well-characterized model for FAS. Previous work with this strain has defined the effects of dosage and embryonic timing on maternal serum alcohol levels and embryonic effects (Webster et al., Neurobehav Tox, 2:227-34 (1980)), incorporated herein by reference. Intra-peritoneal treatment allowed for defined and reproducible dosages. […] The mice were injected with 25% ethyl alcohol in saline (v/v) or vehicle alone at 0.030 ml/g maternal body weight at 0900 on E8. Pretreatment with the study peptides was given 30 minutes prior to alcohol administration. […]
To assess the protective effects of the ADNF peptides in the most severe form of stress, the number of fetal death was determined. […]

The test system is the same in series [2]. The series can be described thus: Fetal weights and fetal brain weights at E18 in mouse model for FAS. The series is classed as in vivo. Particulars: pretreatment 30 min prior to alcohol on E8; for fetal weights (alcohol-induced growth restriction): NAPVSIPQ 20 μg, VIP 1 μg. The method, then: as §1, §2, §3, §4, §5
In the surviving E18 fetuses, fetal and fetal brain weights were evaluated to assess the protective effects of the ADNF peptides. […]

The conditions of series [3]: stated without test; cited from earlier work.
The mark [4] stands for this setting: surviving E18 fetuses, SALLRSIPA 20 μg, combination 20 μg+20 μg.

No end group written: not given here.

Regarding “NAPVSIPQ [Asn-Ala-Pro-Val-Ser-Ile-Pro-Gln]”, in series [1], the “percentage of fetal demises” value is on record as “prevented the demises seen with alcohol”; the “alcohol toxicity as measured by fetal demises and weight (summary)” value is on record as “moderately prevented alcohol toxicity”. Further, the alcohol-induced growth restriction entry in series [2] (double dosage of NAPVSIPQ (40 μg), E18) is “moderately prevented the alcohol-induced growth restriction”. Further, the “fetal weights (alcohol-induced growth restriction)” value (from here on “fetal weights”) in series [2] (setting [4]) is on record as “moderately prevented the alcohol-induced growth restrictions”. For the same substance, in series [3], the “crossing of the blood brain barrier” value is reported as “cross the blood brain barrier”.
For “SALLRSIPA [Ser-Ala-Leu-Leu-Arg-Ser-Ile-Pro-Ala]”, in series [1], the “percentage of fetal demises” value is “unable to bring the fetal demise rate to control levels”; the “alcohol toxicity as measured by fetal demises and weight (summary)” value is on record as “moderately prevented alcohol toxicity”. Further, in series [2] (setting [4]), the “fetal weights” value was “did not prevent the alcohol-induced fetal weight reduction” and the “fetal brain weights (alcohol-induced fetal brain weight reduction)” value is reported as “moderately prevented the alcohol-induced fetal brain weight reduction”. Also, the “crossing of the blood brain barrier” value in series [3] is on record as “cross the blood brain barrier”.
As to “vasoactive intestinal peptide (HSDAVFTDNYTRLRKQMAVKKYLNSILN; ends and bridges not checked; UniProt P01282 125-152, looked up) [VIP, neuropeptide that is a regulator of early postimplantation mouse embryonic growth, reference compound]”, the “percentage of fetal demises” value in series [1] is “slightly improved the fetal demise rate”. Also, the “fetal weights” value in series [2] (setting [4]) is given as “improved embryonic weights; however, the effect was intermediate”.
